Test results from the supplement of paper PMC9334596.
Structures can show the parent of a compound that is named as a salt.

Tested on: mPer2Luc MEF
Experiment: PER2::LUC luminescence relative to vehicle control (fold of vehicle); higher = higher PER2::LUC reporter signal
Procedure: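 Secondary dose-response validation of 72 circadian-modulating compounds in mPer2Luc MEFs, threefold dilution series of six doses from 10 uM down to 0.04 uM. PER2::LUC luminescence read at 24 h and 30 h after treatment, normalised to vehicle (DMSO) control.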

[1] = time after treatment: 24-hour, concentration: 0.04μM
[2] = time after treatment: 24-hour, concentration: 0.37μM
[3] = time after treatment: 24-hour, concentration: 3.33μM
[4] = time after treatment: 24-hour, concentration: 10μM
[5] = time after treatment: 30-hour, concentration: 0.04μM
[6] = time after treatment: 30-hour, concentration: 0.37μM
[7] = time after treatment: 30-hour, concentration: 3.33μM
[8] = time after treatment: 30-hour, concentration: 10μM

SMILES | PER2::LUC luminescence [1] | PER2::LUC luminescence [2] | PER2::LUC luminescence [3] | PER2::LUC luminescence [4] | PER2::LUC luminescence [5] | PER2::LUC luminescence [6] | PER2::LUC luminescence [7] | PER2::LUC luminescence [8]
COc1cc(NC(=O)c2ccc(-c3ccc(Cl)cc3)o2)cc(OC)c1 | 0.886 | 0.894 | 0.888 | 0.875 | 0.83 | 0.878 | 0.95 | 0.864
CC(C)NC[C@@H](C(=O)N1CCN(c2ncnc3c2[C@H](C)C[C@H]3O)CC1)c1ccc(Cl)cc1 [GDC-0068] | 0.898 | 0.743 | 0.674 | 0.481 | 0.917 | 0.776 | 0.619 | 0.434
CCOC(=O)c1ccc(N(C)c2csc(-c3ccccc3)n2)cc1 [Neuropathiazol] | 0.939 | 1 | 1.04 | 1.1 | 0.913 | 0.937 | 1 | 1.08
O=C(Nc1cccc(Cl)c1)c1ccccn1 | 1.06 | 1.28 | 1.51 | 1.81 | 1.06 | 1.29 | 1.57 | 1.92
C[C@H](NC(=O)/C(C#N)=C/c1cccc(Br)n1)c1ccccc1 [WP1066] | 1.1 | 1.03 | 1.14 | 0.142 | 1.02 | 1.02 | 0.891 | 0.13
CC(C)(C)c1ccc(-c2nc3ccccc3[nH]2)cc1 [ZLN005] | 0.223 | 0.131 | 0.076 | 0.065 | 0.357 | 0.204 | 0.098 | 0.075
COc1cc(NS(C)(=O)=O)ccc1Nc1c2ccccc2nc2ccccc12 [Amsacrine] | 0.726 | 0.768 | 0.663 | 0.603 | 0.43 | 0.474 | 0.379 | 0.285
CCN1CCN(Cc2ccc(NC(=O)Nc3ccc(Oc4cc(NC)ncn4)cc3)cc2C(F)(F)F)CC1 [AST 487] | 0.843 | 0.869 | 0.792 | 0.031 | 0.918 | 0.891 | 0.951 | 0.023
Cc1ccc(NC(=O)c2cccc(N(C)C)c2)cc1NC(=O)c1ccc(O)cc1 | 0.95 | 0.979 | 1.07 | 1.36 | 0.924 | 0.932 | 1.01 | 1.65
CN1CCN(c2nc3ccccc3nc2Cl)CC1 | 1 | 1.02 | 1.02 | 0.958 | 1.04 | 1.05 | 1.04 | 0.971
C=CC(=O)Nc1cccc(Nc2nc(Nc3ccc(Oc4ccnc(C(=O)NC)c4)cc3)ncc2F)c1 [CNX-774] | 0.953 | 0.958 | 0.839 | 0.44 | 1.01 | 0.966 | 0.857 | 0.586
COc1cc(-c2nc3ccccc3s2)ccc1O [YL-109] | 1.05 | 1.08 | 1.31 | 1.39 | 1.13 | 1.16 | 1.42 | 1.53
Cc1cc2sc(NC(=O)Cc3ccccc3)nc2cc1Cl [LH-846] | 1.17 | 1.3 | 1.46 | 1.28 | 1.37 | 1.53 | 1.75 | 1.26
O=c1cc(N2CCOCC2)oc2c(-c3cccc4c3sc3ccccc34)cccc12 | 0.952 | 0.951 | 1.05 | 1.07 | 0.952 | 0.931 | 1.08 | 1.09
CC1=C2C[C@H]3[C@@H](CC=C4C[C@@H](O)CC[C@@]43C)[C@@H]2CC[C@]12O[C@@H]1C[C@H](C)CN[C@H]1[C@H]2C [Cyclopamine] | 0.834 | 0.74 | 0.421 | 0.178 | 0.991 | 0.999 | 0.766 | 0.229
COc1ccc(CCN2CCC(Nc3nc4ccccc4n3Cc3ccc(F)cc3)CC2)cc1 [Astemizole] | 0.895 | 0.815 | 0.543 | 0.026 | 0.783 | 0.79 | 0.67 | 0.009
Cn1cc(/C=C/C(=O)c2cccc(F)c2)cc1/C=C/C(=O)NO [MC1568] | 0.933 | 0.956 | 0.979 | 1.34 | 0.907 | 0.894 | 0.843 | 1.04
Cc1ccc(NC(=O)Nc2cc(C(F)(F)F)ccc2F)cc1Nc1ccc2c(c1)NC(=O)/C2=C\c1ccc[nH]1 [GNF-5837] | 1.07 | 1.06 | 1.15 | 0.539 | 1.05 | 1.05 | 1.2 | 0.751
O=C(c1ccc(OCCN2CCCCC2)cc1)c1c(-c2ccc(O)cc2)sc2cc(O)ccc12 [Raloxifene HCl] | 0.941 | 0.955 | 0.814 | 0.287 | 1 | 0.996 | 0.896 | 0.512
